In brackets after ≈: the same amount, converted by molar mass. Where a SMILES comes first, the peptide text is derived from it.
Key:
[1] = system: S. epidermidis; assay: microbe, parasite or virus in culture; format: cell-based, Staphylococcus epidermidis
In short: (§1)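 Broth microdilution in MH medium: bacterial strains diluted to 2×10^6 CFU were mixed with equal volumes of peptide serially diluted twofold in MH medium.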

[2] = system: E. coli; assay: MIC of antibiotic during combined treatment with antimicrobial peptide; format: cell-based, Escherichia coli; conditions: for Antibiotic MIC, Erythromycin / Antibiotic MIC, Linezolid / Antibiotic MIC, Vancomycin: E. coli
In short: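 MIC values for mixed peptide plus antibiotic solutions were measured in MH medium.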

[3] = system: MDRST 8009; format: cell-based, Salmonella typhimurium; conditions: agent alone
In short: as §1

[4] = system: MDRST 8007; assay: Minimal inhibitory concentration (MIC), single agent; format: cell-based, Salmonella typhimurium; conditions: agent alone
In short: as §1

[5] = system: MDREC 1229; assay: MIC of antibiotic during combined treatment with antimicrobial peptide; format: cell-based, Escherichia coli
In short: (§2)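 Antibiotic MIC came from antibiotic dilutions added to bacteria (2×10^6 CFU/ml, MH medium) already combined with peptide serially diluted 2:1 from its own MIC. Swapping the roles of the two agents gave the peptide MIC.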

[6] = system: S. typhimurium; assay: microbe, parasite or virus in culture; format: cell-based, Salmonella typhimurium
In short: as §1

[7] = system: MDRAB 12035; assay: MIC of antimicrobial peptide during combined treatment with antibiotic; format: cell-based, Acinetobacter baumannii
In short: as §2

[8] = system: A. baumannii; assay: as above; format: cell-based, Acinetobacter baumannii
In short: as §2

[9] = system: MDREC 1238; format: cell-based, Escherichia coli
In short: as §1

[10] = system: MDRAB 12036; format: cell-based, Acinetobacter baumannii
In short: as §1

[11] = system: P. aeruginosa; assay: microbe, parasite or virus in culture; format: cell-based, Pseudomonas aeruginosa
In short: as §1

[12] = system: MRSA 3114; format: cell-based, Staphylococcus aureus; conditions: 3114
In short: as §1

[13] = system: MRSA 3126; format: cell-based, Staphylococcus aureus; conditions: 3126
In short: as §1

[14] = system: S. aureus; assay: microbe, parasite or virus in culture; format: cell-based, Staphylococcus aureus
In short: as §1

[15] = system: MDREC 1229; assay: microbe, parasite or virus in culture; format: cell-based, Escherichia coli
In short: as §1

[16] = system: E. coli; assay: microbe, parasite or virus in culture; format: cell-based, Escherichia coli
In short: as §1

[17] = peptide treatment concentration 1 μg/ml
[18] = peptide treatment concentration 2 μg/ml
[19] = peptide treatment concentration 4 μg/ml
[20] = peptide treatment concentration 6 μg/ml
[21] = peptide treatment concentration 8 μg/ml
[22] = peptide treatment concentration 16 μg/ml
[23] = peptide treatment concentration 32 μg/ml
[24] = peptide treatment concentration 64 μg/ml
[25] = erythromycin 4 μg/ml (Conc./MIC 1/8)
[26] = erythromycin 8 μg/ml (Conc./MIC 1/4)
[27] = erythromycin 16 μg/ml (Conc./MIC 1/2)
[28] = erythromycin 32 μg/ml (Conc./MIC 1)
[29] = vancomycin 512 μg/ml (Conc./MIC 1/2)
[30] = vancomycin 1024 μg/ml (Conc./MIC 1)

CC[C@H](C)[C@H](NC(=O)[C@H](CCCCN)NC(=O)[C@H](Cc1c[nH]c2ccccc12)NC(=O)[C@@H](N)CCCNC(=N)N)C(=O)N[C@@H](Cc1ccccc1)C(=O)N[C@@H](CCCCN)C(=O)N[C@@H](CCCCN)C(=O)N[C@H](C(=O)N1CCC[C@H]1C(=O)N[C@@H](CCCCN)C(=O)N[C@@H](CC(C)C)C(=O)N[C@@H](CC(C)C)C(=O)N[C@@H](Cc1c[nH]cn1)C(=O)N[C@@H](CO)C(=O)N[C@@H](Cc1ccccc1)C(=O)N[C@@H](CCCCN)C(=O)N[C@@H](CCCCN)C(=O)N[C@@H](Cc1ccccc1)C(N)=O)[C@@H](C)CC [PapMA-7, RWK IFK KIP KLL HSF KKF-NH2] (H-RWKIFKKIPKLLHSFKKF-NH2; N-terminus assumed)
Minimal inhibitory concentration MIC [1]: >128 mg/L | Synergistic effect of antibacterial activity with existing antibiotics compared with PapMA-1 ([2]; E. coli and MDREC1229): higher level than the PapMA-1 peptide | Antibiotic MIC, Erythromycin ([2]; erythromycin combined with peptide at 1 μg/ml): 64 mg/L | Antibiotic MIC, Erythromycin ([2]; erythromycin combined with peptide at 2 μg/ml): 32 mg/L | Antibiotic MIC, Erythromycin ([2]; erythromycin combined with peptide at 4 μg/ml): 4 mg/L | Antibiotic MIC, Erythromycin ([2]; erythromycin combined with peptide at 6 μg/ml): 2 mg/L | Antibiotic MIC, Erythromycin ([2]; erythromycin combined with peptide at 8 μg/ml): 0.25 mg/L | Antibiotic MIC, Erythromycin ([2]; erythromycin combined with peptide at 16 μg/ml): 0.125 mg/L | Antibiotic MIC, Erythromycin ([2]; erythromycin combined with peptide at 32 μg/ml): 0 mg/L | Antibiotic MIC, Erythromycin ([2]; erythromycin combined with peptide at 64 μg/ml): 0 mg/L | Antibiotic MIC, Linezolid ([2]; linezolid combined with peptide at 1 μg/ml): >128 mg/L | Antibiotic MIC, Linezolid ([2]; linezolid combined with peptide at 2 μg/ml): 128 mg/L | Antibiotic MIC, Linezolid ([2]; linezolid combined with peptide at 4 μg/ml): 8 mg/L | Antibiotic MIC, Linezolid ([2]; linezolid combined with peptide at 6 μg/ml): 4 mg/L | Antibiotic MIC, Linezolid ([2]; linezolid combined with peptide at 8 μg/ml): 4 mg/L | Antibiotic MIC, Linezolid ([2]; linezolid combined with peptide at 16 μg/ml): 1 mg/L | Antibiotic MIC, Linezolid ([2]; linezolid combined with peptide at 32 μg/ml): 0 mg/L | Antibiotic MIC, Linezolid ([2]; linezolid combined with peptide at 64 μg/ml): 0 mg/L | Antibiotic MIC, Vancomycin ([2]; vancomycin combined with peptide at 1 μg/ml): >128 mg/L | Antibiotic MIC, Vancomycin ([2]; vancomycin combined with peptide at 2 μg/ml): 128 mg/L | Antibiotic MIC, Vancomycin ([2]; vancomycin combined with peptide at 4 μg/ml): 32 mg/L | Antibiotic MIC, Vancomycin ([2]; vancomycin combined with peptide at 6 μg/ml): 8 mg/L | Antibiotic MIC, Vancomycin ([2]; vancomycin combined with peptide at 8 μg/ml): 4 mg/L | Antibiotic MIC, Vancomycin ([2]; vancomycin combined with peptide at 16 μg/ml): 1 mg/L | Antibiotic MIC, Vancomycin ([2]; vancomycin combined with peptide at 32 μg/ml): 0 mg/L | Antibiotic MIC, Vancomycin ([2]; vancomycin combined with peptide at 64 μg/ml): 0 mg/L | Minimal inhibitory concentration MIC [3]: 32 mg/L (≈ 13.7 µM) | Minimal inhibitory concentration MIC [4]: 32 mg/L (≈ 13.7 µM) | Antibiotic MIC, Erythromycin [5, 17]: 64 mg/L | Antibiotic MIC, Linezolid [5, 17]: 128 mg/L | Antibiotic MIC, Vancomycin [5, 17]: >128 mg/L | Antibiotic MIC, Erythromycin [5, 18]: 16 mg/L | Antibiotic MIC, Linezolid [5, 18]: 32 mg/L | Antibiotic MIC, Vancomycin [5, 18]: >128 mg/L | Antibiotic MIC, Erythromycin [5, 19]: 4 mg/L | Antibiotic MIC, Linezolid [5, 19]: 16 mg/L | Antibiotic MIC, Vancomycin [5, 19]: 128 mg/L | Antibiotic MIC, Erythromycin [5, 20]: 2 mg/L | Antibiotic MIC, Linezolid [5, 20]: 8 mg/L | Antibiotic MIC, Vancomycin [5, 20]: 16 mg/L | Antibiotic MIC, Erythromycin [5, 21]: 1 mg/L | Antibiotic MIC, Linezolid [5, 21]: 4 mg/L | Antibiotic MIC, Vancomycin [5, 21]: 8 mg/L | Antibiotic MIC, Erythromycin [5, 22]: 0.125 mg/L | Antibiotic MIC, Linezolid [5, 22]: 2 mg/L | Antibiotic MIC, Vancomycin [5, 22]: 2 mg/L | Antibiotic MIC, Erythromycin [5, 23]: 0.0625 mg/L | Antibiotic MIC, Linezolid [5, 23]: 1 mg/L | Antibiotic MIC, Vancomycin [5, 23]: 1 mg/L | Antibiotic MIC, Erythromycin [5, 24]: 0 mg/L | Antibiotic MIC, Linezolid [5, 24]: 0 mg/L | Antibiotic MIC, Vancomycin [5, 24]: 0 mg/L | Minimal inhibitory concentration MIC [6]: 16 mg/L (≈ 6.83 µM) | Peptide MIC during treatment with erythromycin [7, 25]: 2 mg/L | Peptide MIC during treatment with erythromycin [7, 26]: 1 mg/L | Peptide MIC during treatment with erythromycin [7, 27]: 1 mg/L | Peptide MIC during treatment with erythromycin [7, 28]: 0 mg/L | Peptide MIC during treatment with linezolid ([7]; linezolid 64 μg/ml (Conc./MIC 1/8)): 1 mg/L | Peptide MIC during treatment with linezolid ([7]; linezolid 512 μg/ml (Conc./MIC 1)): 0 mg/L | Peptide MIC during treatment with linezolid ([7]; linezolid […] (Conc./MIC 1/2)): 1 mg/L | Peptide MIC during treatment with linezolid ([7]; linezolid […] (Conc./MIC 1/4)): 1 mg/L | Peptide MIC during treatment with vancomycin [7, 29]: 0.5 mg/L | Peptide MIC during treatment with vancomycin [7, 30]: 0.25 mg/L | Peptide MIC during treatment with vancomycin ([7]; vancomycin […] (Conc./MIC 1/4)): 1 mg/L | Peptide MIC during treatment with vancomycin ([7]; vancomycin […] (Conc./MIC 1/8)): 1 mg/L | Peptide MIC during treatment with antibiotic [8, 25]: 2 mg/L | Peptide MIC during treatment with antibiotic [8, 26]: 2 mg/L | Peptide MIC during treatment with antibiotic [8, 27]: 1 mg/L | Peptide MIC during treatment with antibiotic [8, 28]: 0 mg/L | Peptide MIC during treatment with antibiotic ([8]; linezolid 32 μg/ml (Conc./MIC 1/8)): 2 mg/L | Peptide MIC during treatment with antibiotic ([8]; linezolid 64 μg/ml (Conc./MIC 1/4)): 2 mg/L | Peptide MIC during treatment with antibiotic ([8]; linezolid […] (Conc./MIC 1)): 0 mg/L | Peptide MIC during treatment with antibiotic ([8]; linezolid […] (Conc./MIC 1/2)): 1 mg/L | Peptide MIC during treatment with antibiotic [8, 29]: 0.25 mg/L | Peptide MIC during treatment with antibiotic [8, 30]: 0 mg/L | Peptide MIC during treatment with antibiotic ([8]; vancomycin […] (Conc./MIC 1/4)): 0.25 mg/L | Peptide MIC during treatment with antibiotic ([8]; vancomycin […] (Conc./MIC 1/8)): 2 mg/L | Minimal inhibitory concentration MIC [9]: 64 mg/L (≈ 27.3 µM) | Minimal inhibitory concentration MIC [10]: 32 mg/L (≈ 13.7 µM) | Minimal inhibitory concentration MIC [11]: 16 mg/L (≈ 6.83 µM) | Antibacterial activity (in words) ([11]; P. aeruginosa and S. typhimurium): significantly increased | Minimal inhibitory concentration MIC [12]: >128 mg/L | Minimal inhibitory concentration MIC [13]: >128 mg/L | Minimal inhibitory concentration MIC [14]: >128 mg/L | Minimal inhibitory concentration MIC [15]: 64 mg/L (≈ 27.3 µM) | Minimal inhibitory concentration MIC ([16]; 16 h): 32 mg/L (≈ 13.7 µM) | Antibacterial activity relative to PapMA-1 ([16]; E. coli): at least twice as high
